Target: Human Factor D (Homo sapiens (Human), UniProt P00746)
Assay: Human Factor D Assay
Format: biochemical
Details: Human Factor D assay of Example 8; Table 2; read-out: IC50
Outline: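 Serum-purified human Factor D (80 nM final) was preincubated with test compound at various concentrations for 5 min at room temperature in 50 mM Tris, 1M NaCl, pH 7.5. Z-L-Lys-SBzl and DTNB were then added at 100 μM each. IC50 came from nonlinear regression of reaction rates versus compound concentration.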

Human Factor D, sequence (P00746 26-253): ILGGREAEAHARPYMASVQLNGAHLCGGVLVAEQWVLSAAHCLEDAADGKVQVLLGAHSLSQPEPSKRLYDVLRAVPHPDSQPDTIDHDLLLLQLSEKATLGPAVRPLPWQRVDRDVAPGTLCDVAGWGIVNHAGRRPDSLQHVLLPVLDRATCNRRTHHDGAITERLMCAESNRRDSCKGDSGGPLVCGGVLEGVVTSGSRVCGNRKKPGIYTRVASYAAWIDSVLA

SMILES	IC50 [nM]
CC(=O)c1nn(CC(=O)N2[C@@H]3C[C@@H]3C[C@H]2C(=O)Nc2cccc(OC(F)(F)F)c2F)c2ccc(-c3cnc4ccnn4c3)cc12 [Compound 239, (1R,3S,5R)-2-(2-(3-acetyl-5-(pyrazolo[1,5-a]pyrimidin-6-yl)-1H-indazol-1-yl)acetyl)-N-(2-fluoro-3-(trifluoromethoxy)phenyl)-2-azabicyclo[3.1.0] hexane-3-carboxamide]	< 1000
CC(=O)c1nn(CC(=O)N2[C@@H]3C[C@@H]3C[C@H]2C(=O)NCc2cccc(Cl)c2F)c2ccc(-c3cnc4ccnn4c3)cc12 [Compound 240, (1R,3S,5R)-2-(2-(3-acetyl-5-(pyrazolo[1,5-a]pyrimidin-6-yl)-1H-indazol-1-yl)acetyl)-N-(3-chloro-2-fluorobenzyl)-2-azabicyclo[3.1.0] hexane-3-carboxamide]	< 1000
CC(=O)c1nn(CC(=O)N2C[C@H](F)C[C@H]2C(=O)Nc2cccc(Br)n2)c2ccc(-c3cnc4c(c3)ncn4C)cc12 [Compound 241, (2S,4R)-1-(2-(3-acetyl-5-(3-methyl-3H-imidazo[4,5-b]pyridin-6-yl)-1H-indazol-1-yl)acetyl)-N-(6-bromopyridin-2-yl)-4-fluoropyrrolidine-2-carboxamide]	< 1000
CC(=O)c1nn(CC(=O)N2C[C@H](F)C[C@H]2C(=O)Nc2cccc(Br)n2)c2ccc(-c3ccn4nccc4n3)cc12 [Compound 242, (2S,4R)-1-(2-(3-acetyl-5-(pyrazolo[1,5-a]pyrimidin-5-yl)-1H-indazol-1-yl)acetyl)-N-(6-bromopyridin-2-yl)-4-fluoropyrrolidine-2-carboxamide]	< 1000
CC(=O)c1nn(CC(=O)N2C[C@H](F)C[C@H]2C(=O)Nc2cccc(Br)n2)c2ccc(-c3cnc4cc(C)nn4c3)cc12 [Compound 243, (2S,4R)-1-(2-(3-acetyl-5-(2-methylpyrazolo[1,5-a]pyrimidin-6-yl)-1H-indazol-1-yl)acetyl)-N-(6-bromopyridin-2-yl)-4-fluoropyrrolidine-2-carboxamide]	< 1000
CC(=O)c1nn(CC(=O)N2C[C@H](F)C[C@H]2C(=O)Nc2cccc(Br)n2)c2ccc(N3CCn4c(nnc4C(F)(F)F)C3)cc12 [Compound 244, (2S,4R)-1-(2-(3-acetyl-5-(3-(trifluoromethyl)-5,6-dihydro-[1,2,4]triazolo[4,3-a]pyrazin-7(8H)-yl)-1H-indazol-1-yl)acetyl)-N-(6-bromopyridin-2-yl)-4-fluoropyrrolidine-2-carboxamide]	< 1000
CC(=O)c1nn(CC(=O)N2C[C@H](F)C[C@H]2C(=O)Nc2cccc(Br)n2)c2ccc(-c3cnc4ncccn34)cc12 [Compound 245, (2S,4R)-1-(2-(3-acetyl-5-(imidazo[1,2-a]pyrimidin-3-yl)-1H-indazol-1-yl)acetyl)-N-(6-bromopyridin-2-yl)-4-fluoropyrrolidine-2-carboxamide]	< 1000
CSc1cccc(NC(=O)[C@@H]2C[C@@H](F)CN2C(=O)Cn2nc(C(C)=O)c3cc(-c4cnc(C)nc4)ccc32)n1 [Compound 246, (2S,4R)-1-(2-(3-acetyl-5-(2-methylpyrimidin-5-yl)-1H-indazol-1-yl)acetyl)-4-fluoro-N-(6-(methylthio)pyridin-2-yl)pyrrolidine-2-carboxamide]	< 1000
CC(=O)c1nn(CC(=O)N2C[C@H](F)C[C@H]2C(=O)Nc2cccc(F)n2)c2ccc(-c3cnc(C)nc3)cc12 [Compound 247, (2S,4R)-1-(2-(3-acetyl-5-(2-methylpyrimidin-5-yl)-1H-indazol-1-yl)acetyl)-4-fluoro-N-(6-fluoropyridin-2-yl)pyrrolidine-2-carboxamide]	< 1000
CC(=O)c1nn(CC(=O)N2C[C@H](F)C[C@H]2C(=O)Nc2cccc(Br)n2)c2ccc(-c3ccc4ncnn4c3)cc12 [Compound 248, (2S,4R)-1-(2-(5-([1,2,4]triazolo[1,5-a]pyridin-6-yl)-3-acetyl-1H-indazol-1-yl)acetyl)-N-(6-bromopyridin-2-yl)-4-fluoropyrrolidine-2-carboxamide]	< 1000

Source: US10287301B2 (Achillion Pharmaceuticals, Inc., priority 2015, dated 2019)
